Measured values reported in patent US8575091B1, “Amylin analogues and pharmaceutical compositions thereof” (Novo Nordisk A/S, priority 2012, dated 2013).
Numbered stars: 1 amine (or outer) side, 2 acyl side, 3 side chain; on linkers, the order of the positions; unused ones are H or OH. Bridge positions count the residues as written; N and C are the ends. Side chains are listed from the residue outwards. Peptide text beside a SMILES is read from it. * marks the point of attachment. C20 diacid = O=C(O)CCCCCCCCCCCCCCCCCCC(=O)*; γGlu = O=C(O)[C@H](CCC(=O)[*:2])N[*:1]; AEEA = NCCOCCOCC(=O)O

Key:
[1] = target: T1, human calcitonin receptor (Homo sapiens, UniProt P30988); test: Assay (VII) binding to the human calcitonin receptor (SPA, 125I-Calcitonin); conditions: read-out: hCTR bind IC50;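 note: cell membranes coupled to SPA beads, competitive displacement read by scintillation counting, IC50 derived from a one-site competition fit as a measure of receptor affinity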
T1 construct: expressed in transfected cells
T1 sequence (P30988 25-474): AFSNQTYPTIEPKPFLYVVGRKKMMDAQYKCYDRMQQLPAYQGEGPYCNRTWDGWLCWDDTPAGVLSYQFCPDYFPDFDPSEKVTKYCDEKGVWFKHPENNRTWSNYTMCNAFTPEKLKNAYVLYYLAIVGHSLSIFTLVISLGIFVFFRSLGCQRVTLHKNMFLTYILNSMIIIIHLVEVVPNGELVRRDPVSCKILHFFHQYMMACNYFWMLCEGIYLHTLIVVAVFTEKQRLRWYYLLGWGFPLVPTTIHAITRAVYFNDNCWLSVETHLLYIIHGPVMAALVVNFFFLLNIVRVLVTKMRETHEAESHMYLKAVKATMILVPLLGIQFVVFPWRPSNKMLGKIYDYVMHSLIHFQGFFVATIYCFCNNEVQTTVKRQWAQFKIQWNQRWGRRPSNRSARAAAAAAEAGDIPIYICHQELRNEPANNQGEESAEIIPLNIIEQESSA

human amylin receptor = target: T2, human amylin receptor (Homo sapiens, UniProt O60896+P30988); test: Assay (V) binding to the human amylin receptor (SPA, 125I-rat amylin); conditions: for IC50: human amylin receptor membranes, SPA, read-out: hAmylin-R bind IC50
T2 construct: expressed in transfected cells
T2 sequence (P30988 25-474): T1 sequence (P30988 25-474)
T2 sequence (O60896 24-148 partner): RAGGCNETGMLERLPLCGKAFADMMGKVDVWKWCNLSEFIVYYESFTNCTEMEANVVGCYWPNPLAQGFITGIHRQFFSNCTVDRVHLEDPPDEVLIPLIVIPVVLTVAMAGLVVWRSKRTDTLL
Outline: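 IC50, taken as receptor affinity, came from one-site binding competition analysis of scintillation proximity counts. Amylin 3(a)/CRE-luc cell membranes (35 ng/μL final) were mixed with SPA beads (0.05 mg/well) in 50 mM Hepes pH 7.4 containing CaCl2, MgCl2, 0.1% OA and 0.02% Tween20.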

[2] = Assay (IV) determination of solubility; assay type: physicochemical; conditions: for Solubility pH 6.5 Concentration (μM): pH 6.5, 18 hours room temperature; for Solubility pH 7.0 Concentration (μM): pH 7.0, 18 hours room temperature; for Solubility pH 7.5 Concentration (μM): pH 7.5, 18 hours room temperature; for Solubility pH 8.0 Concentration (μM): pH 8.0, 18 hours room temperature
Description: Assay (IV)—Determination of Solubility
The polypeptide was dissolved in water at ˜500 nmol/ml and mixed 1:1 with a series of buffers (100 mM glycylglycine pH 3.0, 100 mM glycylglycine pH 4.0, 100 mM glycylglycine pH 5.0, 100 mM bistrispropane pH 6.0, 100 mM bistrispropane pH 6.5, 100 mM bistrispropane pH 7.0, 100 mM bistrispropane pH 7.5, 100 mM bistrispropane pH 8.0). After 18 hours at room temperature the samples were centrifuged and the polypeptide concentration determined by UPLC.

[3] = target: T1, human calcitonin receptor; test: Assay (II)a functional assay, human calcitonin receptor (CRE luciferase, BHK cells);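 note: luminescence from a CRE-driven luciferase reporter, read by single photon counting after cells were exposed to test samples for 3 h at 37 °C under 5% CO2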; assay type: cell-based; conditions: read-out: hCTR funct. EC50
[4] = target: T3, human amylin receptor (amylin 3(a) receptor: human calcitonin receptor + RAMP-3) (Homo sapiens, UniProt O60896+P30988); test: Assay (II)a functional assay, human amylin receptor (CRE luciferase, BHK cells); assay type: cell-based; conditions: for EC50: functional assay, human amylin receptor, read-out: hAmylin-R funct. EC50
T3 construct: expressed in transfected cells
T3 sequence (P30988 25-474): T1 sequence (P30988 25-474)
T3 sequence (O60896 24-148 partner): T2 sequence (O60896 24-148 partner)

rat amylin receptor = target: T4, rat amylin receptor (Rattus norvegicus, UniProt P32214+Q9JJ73); test: Assay (VI) binding to the rat amylin receptor; conditions: rCTR bind IC50 divided by rAmylin-R bind IC50
T4 construct: expressed in transfected cells; host or cells: BHK tk'ts 13 (transient, FuGENE 6), membranes
T4 sequence (P32214 25-479 isoform P32214-2 limits assumed): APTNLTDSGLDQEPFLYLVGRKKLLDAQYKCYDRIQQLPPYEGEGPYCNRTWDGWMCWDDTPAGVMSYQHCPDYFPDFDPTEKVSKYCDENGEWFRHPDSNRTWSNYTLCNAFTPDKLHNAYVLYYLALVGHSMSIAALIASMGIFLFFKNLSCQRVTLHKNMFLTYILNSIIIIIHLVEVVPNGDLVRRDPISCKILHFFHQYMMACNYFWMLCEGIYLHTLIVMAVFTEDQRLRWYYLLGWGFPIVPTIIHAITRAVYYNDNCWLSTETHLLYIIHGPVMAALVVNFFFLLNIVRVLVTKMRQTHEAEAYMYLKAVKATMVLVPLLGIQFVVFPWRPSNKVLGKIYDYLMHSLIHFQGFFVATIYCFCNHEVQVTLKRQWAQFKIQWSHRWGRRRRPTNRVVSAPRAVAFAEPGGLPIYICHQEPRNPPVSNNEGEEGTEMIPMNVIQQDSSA
T4 sequence (Q9JJ73 23-147 partner): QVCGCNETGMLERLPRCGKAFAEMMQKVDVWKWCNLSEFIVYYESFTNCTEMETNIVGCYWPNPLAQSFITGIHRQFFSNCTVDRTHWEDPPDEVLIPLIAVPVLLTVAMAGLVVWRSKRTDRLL
Outline: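 Binding as in the human amylin receptor binding assay, but with membranes from BHK tk'ts 13 cells transiently co-transfected with rat calcitonin receptor and rat RAMP 3 […]. Membranes were prepared from cells harvested about 48 hours after transfection.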

[5] = Table 6, human functional selectivity (hCTR EC50 / hAmylin-R EC50)

CC[C@H](C)[C@H](NC(=O)[C@H](C)NC(=O)CNC(=O)[C@H](Cc1ccccc1)NC(=O)[C@H](CC(N)=O)NC(=O)[C@@H]1CCCN1C(=O)[C@H](CO)NC(=O)[C@H](CO)NC(=O)[C@H](Cc1c[nH]cn1)NC(=O)[C@H](CCCNC(=N)N)NC(=O)[C@H](CC(C)C)NC(=O)[C@H](Cc1ccccc1)NC(=O)[C@H](CC(N)=O)NC(=O)[C@H](C)NC(=O)[C@H](CC(C)C)NC(=O)[C@H](CCCNC(=N)N)NC(=O)[C@H](CCC(N)=O)NC(=O)[C@@H](NC(=O)[C@H](C)NC(=O)[C@@H]1CSSC[C@H](NC(=O)[C@@H](N)CCCCNC(=O)COCCOCCNC(=O)CC[C@H](NC(=O)CCCCCCCCCCCCCCCCCCC(=O)O)C(=O)O)C(=O)N[C@@H](CC(N)=O)C(=O)N[C@@H]([C@@H](C)O)C(=O)N[C@@H](C)C(=O)N[C@@H]([C@@H](C)O)C(=O)N1)[C@@H](C)O)C(=O)N1CCC[C@H]1C(=O)N[C@@H](CO)C(=O)N[C@@H](CO)C(=O)N[C@H](C(=O)N[C@@H](CC(N)=O)C(=O)N[C@H](C(=O)NCC(=O)N1CCC[C@H]1C(=O)N[C@@H](Cc1c[nH]cn1)C(=O)N[C@H](C(=O)N[C@@H](Cc1ccc(O)cc1)C(N)=O)[C@@H](C)O)C(C)C)[C@@H](C)O [Example 58] (H-K([AEEA-γGlu-C20 diacid])CNTATCATQRLANFLRHSSPNFGAIPSSTNVGPHTY-NH2; disulfide 2-7)
IC50 [1]: 9.63 nM | IC50 (human amylin receptor): 0.088 nM | Solubility pH 6.5 Concentration (μM) [2]: ≧200 μM | Solubility pH 7.0 Concentration (μM) [2]: ≧200 μM | Solubility pH 7.5 Concentration (μM) [2]: 96 μM | Solubility pH 8.0 Concentration (μM) [2]: 48 μM | EC50 [3]: 1.03 nM | EC50 [4]: 0.047 nM

CC[C@H](C)[C@H](NC(=O)[C@H](C)NC(=O)CNC(=O)[C@H](Cc1ccccc1)NC(=O)[C@H](CC(N)=O)NC(=O)[C@@H]1CCCN1C(=O)[C@H](CO)NC(=O)[C@H](CO)NC(=O)[C@H](Cc1c[nH]cn1)NC(=O)[C@H](CCCNC(=N)N)NC(=O)[C@H](CC(C)C)NC(=O)[C@H](Cc1ccccc1)NC(=O)[C@H](Cc1c[nH]cn1)NC(=O)[C@H](C)NC(=O)[C@H](CC(C)C)NC(=O)[C@H](CCCNC(=N)N)NC(=O)[C@H](CCC(N)=O)NC(=O)[C@@H](NC(=O)[C@H](C)NC(=O)[C@@H]1CSSC[C@H](NC(=O)[C@@H](N)CCCCNC(=O)CC[C@H](NC(=O)CCCCCCCCCCCCCCCCCCC(=O)O)C(=O)O)C(=O)N[C@@H](CC(N)=O)C(=O)N[C@@H]([C@@H](C)O)C(=O)N[C@@H](C)C(=O)N[C@@H]([C@@H](C)O)C(=O)N1)[C@@H](C)O)C(=O)N1CCC[C@H]1C(=O)N[C@@H](CO)C(=O)N[C@@H](CO)C(=O)N[C@H](C(=O)N[C@@H](CC(N)=O)C(=O)N[C@H](C(=O)NCC(=O)N[C@@H](CO)C(=O)N[C@@H](Cc1c[nH]cn1)C(=O)N[C@H](C(=O)N[C@@H](Cc1ccc(O)cc1)C(N)=O)[C@@H](C)O)C(C)C)[C@@H](C)O [Example 66] (H-K([γGlu-C20 diacid])CNTATCATQRLAHFLRHSSPNFGAIPSSTNVGSHTY-NH2; disulfide 2-7; N-terminus assumed)
Solubility pH 6.5 Concentration (μM) [2]: ≧200 μM | Solubility pH 7.0 Concentration (μM) [2]: ≧200 μM | Solubility pH 7.5 Concentration (μM) [2]: 131 μM | Solubility pH 8.0 Concentration (μM) [2]: 52 μM

CC[C@H](C)[C@H](NC(=O)[C@H](C)NC(=O)CNC(=O)[C@H](Cc1ccccc1)NC(=O)[C@H](CC(N)=O)NC(=O)[C@@H]1CCCN1C(=O)[C@H](CO)NC(=O)[C@H](CO)NC(=O)[C@H](Cc1c[nH]cn1)NC(=O)[C@H](CCCNC(=N)N)NC(=O)[C@H](CC(C)C)NC(=O)[C@H](Cc1ccccc1)NC(=O)[C@H](CCC(=O)O)NC(=O)[C@H](C)NC(=O)[C@H](CC(C)C)NC(=O)[C@H](CCCNC(=N)N)NC(=O)[C@H](CCC(N)=O)NC(=O)[C@@H](NC(=O)[C@H](C)NC(=O)[C@@H]1CSSC[C@H](NC(=O)[C@@H](N)CCCCNC(=O)CC[C@H](NC(=O)CCCCCCCCCCCCCCCCCCC(=O)O)C(=O)O)C(=O)N[C@@H](CC(N)=O)C(=O)N[C@@H]([C@@H](C)O)C(=O)N[C@@H](C)C(=O)N[C@@H]([C@@H](C)O)C(=O)N1)[C@@H](C)O)C(=O)N1CCC[C@H]1C(=O)N[C@@H](CO)C(=O)N[C@@H](CO)C(=O)N[C@H](C(=O)N[C@@H](CC(N)=O)C(=O)N[C@H](C(=O)NCC(=O)N1CCC[C@H]1C(=O)N[C@@H](CC(N)=O)C(=O)N[C@H](C(=O)N1CCC[C@H]1C(N)=O)[C@@H](C)O)C(C)C)[C@@H](C)O [Example 114] (H-K([γGlu-C20 diacid])CNTATCATQRLAEFLRHSSPNFGAIPSSTNVGPNTP-NH2; disulfide 2-7)
IC50 [1]: 0.117 nM | IC50 (human amylin receptor): 0.214 nM | Ratio hCT/hAmylin binding (human amylin receptor; human binding ratio, included for comparison): 0.5 | EC50 [3]: 0.09 nM | Ratio hCT/hAmylin funct. [4, 5]: 0.9 | EC50 [4]: 0.105 nM | Ratio rCT/rAmylin binding (rat amylin receptor): 1.1

CC[C@H](C)[C@H](NC(=O)[C@H](C)NC(=O)CNC(=O)[C@H](Cc1ccccc1)NC(=O)[C@H](CC(N)=O)NC(=O)[C@@H]1CCCN1C(=O)[C@H](CO)NC(=O)[C@H](CO)NC(=O)[C@H](Cc1c[nH]cn1)NC(=O)[C@H](CCCNC(=N)N)NC(=O)[C@H](CC(C)C)NC(=O)[C@H](Cc1ccccc1)NC(=O)[C@H](CC(N)=O)NC(=O)[C@H](C)NC(=O)[C@H](CC(C)C)NC(=O)[C@H](CCCNC(=N)N)NC(=O)[C@H](CCC(N)=O)NC(=O)[C@@H](NC(=O)[C@H](C)NC(=O)[C@@H]1CSSC[C@H](NC(=O)[C@@H](N)CCCCNC(=O)CC[C@H](NC(=O)CC[C@H](NC(=O)CCCCCCCCCCCCCCCCCCC(=O)O)C(=O)O)C(=O)O)C(=O)N[C@@H](CC(N)=O)C(=O)N[C@@H]([C@@H](C)O)C(=O)N[C@@H](C)C(=O)N[C@@H]([C@@H](C)O)C(=O)N1)[C@@H](C)O)C(=O)N1CCC[C@H]1C(=O)N[C@@H](CO)C(=O)N[C@@H](CO)C(=O)N[C@H](C(=O)N1CCC[C@H]1C(=O)N[C@H](C(=O)NCC(=O)N1CCC[C@H]1C(=O)N[C@@H](CCCNC(=N)N)C(=O)N[C@H](C(=O)N[C@@H](Cc1ccc(O)cc1)C(N)=O)[C@@H](C)O)C(C)C)[C@@H](C)O [Example 119] (H-K([γGlu-γGlu-C20 diacid])CNTATCATQRLANFLRHSSPNFGAIPSSTPVGPRTY-NH2; disulfide 2-7 (inferred); N-terminus and C-terminus assumed)
Solubility pH 6.5 Concentration (μM) [2]: 174 μM | Solubility pH 7.0 Concentration (μM) [2]: 182 μM | Solubility pH 7.5 Concentration (μM) [2]: 112 μM | Solubility pH 8.0 Concentration (μM) [2]: 32 μM | Ratio hCT/hAmylin funct. [4, 5]: 26.0 | Ratio hCT/hAmylin funct. ([4]; Table 6a, human functional selectivity (hCTR EC50 / hAmylin-R EC50), at least 5): 26.0 | Ratio hCT/hAmylin funct. ([4]; Table 6j, hCTR funct. EC50 / hAmylin-R funct. EC50): 26.0 | Ratio hCT/hAmylin funct. ([4]; Table 6k, hCTR funct. EC50 / hAmylin-R funct. EC50): 26.0
